According to publication PMC7236083 (Hormones & cancer, 2020):

Tests used:
[1] = molecular target: T1, glucocorticoid receptor (GR) (Homo sapiens, UniProt P04150); test: fluorescence polarization competitive binding assay
T1 sequence (P04150 1-777): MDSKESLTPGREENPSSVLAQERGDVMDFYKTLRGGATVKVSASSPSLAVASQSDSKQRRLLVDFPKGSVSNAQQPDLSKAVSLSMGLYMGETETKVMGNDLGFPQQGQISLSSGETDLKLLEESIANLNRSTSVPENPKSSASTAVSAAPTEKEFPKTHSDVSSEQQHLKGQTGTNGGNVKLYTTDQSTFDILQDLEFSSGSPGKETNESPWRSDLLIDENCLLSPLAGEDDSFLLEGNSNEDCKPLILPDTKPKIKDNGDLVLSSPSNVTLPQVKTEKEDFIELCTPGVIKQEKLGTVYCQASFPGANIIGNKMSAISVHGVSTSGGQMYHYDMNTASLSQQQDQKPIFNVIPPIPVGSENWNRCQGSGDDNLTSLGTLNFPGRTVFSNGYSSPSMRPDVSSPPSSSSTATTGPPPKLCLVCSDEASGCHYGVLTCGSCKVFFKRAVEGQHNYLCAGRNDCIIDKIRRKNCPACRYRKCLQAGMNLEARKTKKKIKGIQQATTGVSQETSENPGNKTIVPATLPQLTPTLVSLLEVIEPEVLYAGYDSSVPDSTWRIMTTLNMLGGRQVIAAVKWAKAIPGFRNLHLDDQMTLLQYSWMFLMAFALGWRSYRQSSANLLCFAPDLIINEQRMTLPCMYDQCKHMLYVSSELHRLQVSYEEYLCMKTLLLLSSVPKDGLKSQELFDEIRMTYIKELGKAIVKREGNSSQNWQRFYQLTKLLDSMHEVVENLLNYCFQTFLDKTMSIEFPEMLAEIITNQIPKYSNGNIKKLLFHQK

[2] = molecular target: T2, progesterone receptor (PR) (Homo sapiens, UniProt P06401); test: as above
T2 sequence (P06401 675-933): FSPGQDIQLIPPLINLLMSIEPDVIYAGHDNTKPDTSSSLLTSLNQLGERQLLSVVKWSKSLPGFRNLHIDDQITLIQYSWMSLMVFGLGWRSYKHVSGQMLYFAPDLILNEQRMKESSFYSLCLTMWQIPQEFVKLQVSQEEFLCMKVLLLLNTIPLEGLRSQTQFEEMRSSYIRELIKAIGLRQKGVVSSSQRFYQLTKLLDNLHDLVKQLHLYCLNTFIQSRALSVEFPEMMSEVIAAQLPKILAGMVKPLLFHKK

For O=c1cc(-c2ccccc2)oc2cc(O)c(O)c(O)c12 [baicalein], the IC50 [1] was 19.3 µM and the IC50 [2] was 15.3 µM.
